Among the data in patent US9321764B2, “Dihydro-pyrrolopyridinone inhibitors” (AbbVie Inc., priority 2013, dated 2016) are Ki and EC50 values, retold here.

One test addresses T1, BRD4 (BDI_K57-E168) (Homo sapiens, UniProt O60885).
T1 construct: BD1: amino acids K57-E168; made in house
The test is described as follows: TR-FRET bromodomain binding assay, first bromodomain of BRD4. The conditions noted are these: His-tagged BD1, 100 nM Alexa647 probe; TR-FRET protocol A-E given per row. In short, it runs like this:
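His-tagged BRD4 BD1 (K57-E168), 8 nM, with 1 nM Eu-anti-His antibody and 100 nM Alexa647-labelled BET-inhibitor probe in pH 6.0 phosphate buffer, 2% DMSO. TR-FRET read after 1 h at room temperature. IC50 from 4-parameter fit, converted to Ki using probe Kd and concentration.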
On the technique in general: In TR-FRET formats the signal depends on donor and acceptor labels being close together.

Another test deals with T2, BRD4 (BDII_E352-M457) (Homo sapiens, UniProt O60885).
T2 construct: proliferation; Protocol; made in house
The test is described as follows: TR-FRET bromodomain binding assay, second bromodomain of BRD4. To be noted: His-tagged BD2, 30 nM Alexa647 probe; TR-FRET protocol A-E given per row. In outline:
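His-tagged BRD4 BD2 ([…]) competed against an Alexa647-labelled BET-inhibitor probe in TR-FRET. Buffer was 20 mM sodium phosphate pH 6.0, 50 mM NaCl, 1 mM EDTA, 0.01% Triton X-100, 1 mM DTT, with method D DMSO series of 2.5 mM–800 nM (stock range). IC50 from 4-parameter fit, Ki from probe Kd and concentration.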

Test [1] has as its system breast cancer cell line MX-1. Put plainly: MX-1 cell line proliferation assay. It is filed as cell-based. The conditions noted are these: Homo sapiens, MX1, 72 h, MX-1 cells, 3-day proliferation assay, Cell Titer Glo; read-out: Cellular proliferation EC50. The method, then: The impact of compounds of the Examples on cancer cell proliferation was determined using the breast cancer cell line MX-1 (ATCC) in a 3-day proliferation assay and the data are reported in Table 1. MX-1 cells were maintained in RPMI 1640 medium (Sigma) supplemented with 10% FBS at 37° C. and an atmosphere of 5% CO2. For compound testing, MX-1 cells were plated in 96-well black bottom plates at a density of 5000 cells/well in 90 μL of culture media and incubated at 37° overnight to allow cell adhesion and spreading. Compound dilution series were prepared in DMSO via a 3-fold serial dilution from 3 mM to 0.1 μM. The DMSO dilution series were then diluted 1:100 in phosphate buffered saline, and 10 μL of the resulted solution were added to the appropriate wells of the MX-1 cell plate. The final compound concentrations in the wells were 3, 1, 0.3, 0.1, 0.03, 0.01, 0.003, 0.001, 0.0003 and 0.0001 μM.
Luminescence readings from the Cell Titer Glo assay were normalized to the DMSO treated cells and analyzed using the GraphPad Prism software with sigmoidal curve fitting to obtain EC50s. The minimum significant ratio (MSR) was determined to evaluate assay reproducibility (Eastwood et al., (2006) J Biomol Screen, 11: 253-261).
On the technique in general: In ATP-based viability assays light output follows the ATP content of the culture.

In the case of `COc1cccc(CNc2ccc(Oc3ccc(F)cc3F)c(-c3cn(C)c4c(=O)[nH]ccc34)c2)c1OCc1ccccc1` [Example 177, 3-[5-{[2-(benzyloxy)-3-methoxybenzyl]amino}-2-(2,4-difluorophenoxy)phenyl]-1-methyl-1,6-dihydro-7H-pyrrolo[2,3-c]pyridin-7-one], the Ki at BRD4 (BDI_K57-E168) was found to be 133 nM; at BRD4 (BDII_E352-M457), 248 nM. Besides, the EC50 in test [1] was > 3000 nM.

As for `Cn1cc(-c2cc(S(C)(=O)=O)ccc2OCC2CC2(F)F)c2cc[nH]c(=O)c21` (stereo not drawn) [Example 42, 3-{2-[(2,2-difluorocyclopropyl)methoxy]-5-(methylsulfonyl)phenyl}-1-methyl-1,6-dihydro-7H-pyrrolo[2,3-c]pyridin-7-one], the values for the inhibitory constant (Ki) on BRD4 (BDI_K57-E168) and at BRD4 (BDII_E352-M457) were 13 nM and 79 nM, respectively. The EC50 in test [1] came to 221 nM.

In the case of `Cn1cc(-c2cc(CS(C)(=O)=O)ccc2Oc2ccc(F)cc2F)c2cc(Cl)[nH]c(=O)c21` [Example 91, 5-chloro-3-{2-(2,4-difluorophenoxy)-5-[(methylsulfonyl)methyl]phenyl}-1-methyl-1,6-dihydro-7H-pyrrolo[2,3-c]pyridin-7-one], the Ki came to 5.4 nM on BRD4 (BDI_K57-E168) and 9.5 nM at BRD4 (BDII_E352-M457). The EC50 in test [1] is 8 nM.

`Cn1cc(-c2cc(CCl)ccc2Oc2ccc(F)cc2F)c2cc[nH]c(=O)c21` [Example 120, 3-[5-(chloromethyl)-2-(2,4-difluorophenoxy)phenyl]-1-methyl-1,6-dihydro-7H-pyrrolo[2,3-c]pyridin-7-one]: the inhibition constant Ki on BRD4 (BDI_K57-E168) came out at 77 nM; on BRD4 (BDII_E352-M457), 208 nM. The EC50 in test [1] amounted to 306 nM.

`COc1ccc(Oc2cccc(CNc3ccc(Oc4ccc(F)cc4F)c(-c4cn(C)c5c(=O)[nH]ccc45)c3)c2)cc1` [Example 168, 3-[2-(2,4-difluorophenoxy)-5-{[3-(4-methoxyphenoxy)benzyl]amino}phenyl]-1-methyl-1,6-dihydro-7H-pyrrolo[2,3-c]pyridin-7-one]: the Ki on BRD4 (BDI_K57-E168) came to 386 nM; on BRD4 (BDII_E352-M457), 1200 nM.

Turning to `Cn1cc(-c2cc(S(C)(=O)=O)ccc2OCCc2cccs2)c2cc[nH]c(=O)c21` [Example 39, 1-methyl-3-{5-(methylsulfonyl)-2-[2-(thiophen-2-yl)ethoxy]phenyl}-1,6-dihydro-7H-pyrrolo[2,3-c]pyridin-7-one], the Ki at BRD4 (BDI_K57-E168) is 63 nM; on BRD4 (BDII_E352-M457) it was 51 nM.

On to `Cn1cc(-c2cc(CS(C)(=O)=O)ccc2Oc2ccc(F)cc2F)c2cc(-c3cc(CS(C)(=O)=O)ccc3Oc3ccc(F)cc3F)[nH]c(=O)c21` [Example 93, 3,5-bis{2-(2,4-difluorophenoxy)-5-[(methylsulfonyl)methyl]phenyl}-1-methyl-1,6-dihydro-7H-pyrrolo[2,3-c]pyridin-7-one], for which the inhibitory constant (Ki) at BRD4 (BDI_K57-E168) was determined as 484 nM; on BRD4 (BDII_E352-M457), 619 nM.

As to `Cn1cc(-c2cc(S(C)(=O)=O)ccc2NCC(F)(F)C(F)(F)C(F)(F)F)c2cc[nH]c(=O)c21` [Example 70, 3-{2-[(2,2,3,3,4,4,4-heptafluorobutyl)amino]-5-(methylsulfonyl)phenyl}-1-methyl-1,6-dihydro-7H-pyrrolo[2,3-c]pyridin-7-one], the Ki at BRD4 (BDI_K57-E168) amounted to 613 nM; at BRD4 (BDII_E352-M457) it was 1660 nM.

With `Cn1cc(-c2cc(NC(=O)Cc3noc4ccccc34)ccc2Oc2ccc(F)cc2F)c2cc[nH]c(=O)c21` [Example 158, 2-(1,2-benzoxazol-3-yl)-N-[4-(2,4-difluorophenoxy)-3-(1-methyl-7-oxo-6,7-dihydro-1H-pyrrolo[2,3-c]pyridin-3-yl)phenyl]acetamide], the inhibitory constant (Ki) at BRD4 (BDI_K57-E168) came out at 76.4 nM; on BRD4 (BDII_E352-M457), 153 nM.

On to `Cn1cc(-c2cc(N)ccc2Oc2ccc(F)cc2F)c2cc[nH]c(=O)c21` [Example 146, 3-[5-amino-2-(2,4-difluorophenoxy)phenyl]-1-methyl-1,6-dihydro-7H-pyrrolo[2,3-c]pyridin-7-one], for which the values for the inhibition constant Ki at BRD4 (BDI_K57-E168) and at BRD4 (BDII_E352-M457) were 25.3 nM and 90.1 nM, respectively.

With `Cn1cc(-c2cc(S(C)(=O)=O)ccc2NCCC2CCCC2)c2cc[nH]c(=O)c21` [Example 72, 3-{2-[(2-cyclopentylethyl)amino]-5-(methylsulfonyl)phenyl}-1-methyl-1,6-dihydro-7H-pyrrolo[2,3-c]pyridin-7-one], the inhibition constant Ki at BRD4 (BDI_K57-E168) came to 492 nM; on BRD4 (BDII_E352-M457) it was 967 nM.

With `CCS(=O)(=O)c1ccc(Oc2ccc(Cl)cc2Cl)c(-c2cn(C)c3c(=O)[nH]ccc23)c1` [Example 82, 3-[2-(2,4-dichlorophenoxy)-5-(ethylsulfonyl)phenyl]-1-methyl-1,6-dihydro-7H-pyrrolo[2,3-c]pyridin-7-one], the Ki worked out at 66 nM on BRD4 (BDI_K57-E168) and 49 nM on BRD4 (BDII_E352-M457).

For `Cn1cc(-c2cc(NC(=O)c3ccccn3)ccc2Oc2ccc(F)cc2F)c2cc[nH]c(=O)c21` [Example 150, N-[4-(2,4-difluorophenoxy)-3-(1-methyl-7-oxo-6,7-dihydro-1H-pyrrolo[2,3-c]pyridin-3-yl)phenyl]pyridine-2-carboxamide], the Ki on BRD4 (BDI_K57-E168) turned out to be 22 nM; on BRD4 (BDII_E352-M457), 145 nM.

As for `Cn1cc(-c2cc(CN3CCC(C(F)(F)F)CC3)ccc2Oc2ccc(F)cc2F)c2cc[nH]c(=O)c21` [Example 129, 3-[2-(2,4-difluorophenoxy)-5-{[4-(trifluoromethyl)piperidin-1-yl]methyl]phenyl}-1-methyl-1,6-dihydro-7H-pyrrolo[2,3-c]pyridin-7-one], the Ki was 1140 nM at BRD4 (BDI_K57-E168) and 1190 nM at BRD4 (BDII_E352-M457).

Take `Cn1cc(-c2cc(NC(=O)CCCOc3ccccc3)ccc2Oc2ccc(F)cc2F)c2cc[nH]c(=O)c21` [Example 153, N-[4-(2,4-difluorophenoxy)-3-(1-methyl-7-oxo-6,7-dihydro-1H-pyrrolo[2,3-c]pyridin-3-yl)phenyl]-4-phenoxybutanamide]: the figures for the Ki on BRD4 (BDI_K57-E168) and on BRD4 (BDII_E352-M457) were 321 nM and 293 nM, respectively.

As to `Cn1cc(-c2cc(S(C)(=O)=O)ccc2Oc2ccc(C(C)(C)C)cc2)c2cc[nH]c(=O)c21` [Example 62, 3-[2-(4-tert-butylphenoxy)-5-(methylsulfonyl)phenyl]-1-methyl-1,6-dihydro-7H-pyrrolo[2,3-c]pyridin-7-one], the inhibitory constant (Ki) on BRD4 (BDI_K57-E168) is 357 nM; at BRD4 (BDII_E352-M457), 291 nM.

Consider `CCS(=O)(=O)Nc1ccc(Oc2ccc(F)cc2F)c(-c2cn(C)c3c(=O)[nH]ccc23)c1` [Example 4, N-[4-(2,4-difluorophenoxy)-3-(1-methyl-7-oxo-6,7-dihydro-1H-pyrrolo[2,3-c]pyridin-3-yl)phenyl]ethanesulfonamide], for which the Ki on BRD4 (BDI_K57-E168) is 5.9 nM; on BRD4 (BDII_E352-M457) it was 7.2 nM.

In the case of `Cn1cc(-c2cc(NC(=O)c3ccc(COc4ccccc4)cc3)ccc2Oc2ccc(F)cc2F)c2cc[nH]c(=O)c21` [Example 156, N-[4-(2,4-difluorophenoxy)-3-(1-methyl-7-oxo-6,7-dihydro-1H-pyrrolo[2,3-c]pyridin-3-yl)phenyl]-4-(phenoxymethyl)benzamide], the inhibition constant Ki on BRD4 (BDI_K57-E168) is 598 nM; at BRD4 (BDII_E352-M457), > 920 nM.

On to `CCc1cc(Oc2ccc(S(=O)(=O)CC)cc2-c2cn(C)c3c(=O)[nH]ccc23)ccc1Cl` [Example 79, 3-[2-(4-chloro-3-ethylphenoxy)-5-(ethylsulfonyl)phenyl]-1-methyl-1,6-dihydro-7H-pyrrolo[2,3-c]pyridin-7-one], for which the inhibition constant (Ki) at BRD4 (BDI_K57-E168) is 150 nM; on BRD4 (BDII_E352-M457), 84 nM.

Take `Cc1cc(CC(=O)Nc2ccc(Oc3ccc(F)cc3F)c(-c3cn(C)c4c(=O)[nH]ccc34)c2)nn1C` [Example 164, N-[4-(2,4-difluorophenoxy)-3-(1-methyl-7-oxo-6,7-dihydro-1H-pyrrolo[2,3-c]pyridin-3-yl)phenyl]-2-(1,5-dimethyl-1H-pyrazol-3-yl)acetamide]: the values for the inhibition constant (Ki) at BRD4 (BDI_K57-E168) and at BRD4 (BDII_E352-M457) were 11 nM and 73 nM, respectively.

`Cn1cc(-c2cc(NC(=O)Cc3ccc(Cl)cc3F)ccc2Oc2ccc(F)cc2F)c2cc[nH]c(=O)c21` [Example 160, 2-(4-chloro-2-fluorophenyl)-N-[4-(2,4-difluorophenoxy)-3-(1-methyl-7-oxo-6,7-dihydro-1H-pyrrolo[2,3-c]pyridin-3-yl)phenyl]acetamide]: the inhibitory constant (Ki) at BRD4 (BDI_K57-E168) is 101 nM; at BRD4 (BDII_E352-M457), > 408 nM.

As to `CCS(=O)(=O)Nc1ccc(Oc2ccc(F)cc2F)c(-c2cn(C)c3c(=O)[nH]c(C(=O)NCCN4CCCCC4)cc23)c1` [Example 198, 3-{2-(2,4-difluorophenoxy)-5-[(ethylsulfonyl)amino]phenyl}-1-methyl-7-oxo-N-[2-(piperidin-1-yl)ethyl]-6,7-dihydro-1H-pyrrolo[2,3-c]pyridine-5-carboxamide], the inhibition constant Ki at BRD4 (BDI_K57-E168) is 3.18 nM; at BRD4 (BDII_E352-M457), 10.9 nM.

One may read the Ki as the equilibrium dissociation constant of an inhibitor or competing ligand from its target.
